We go through 15 molecules from patent US20130224754A1, “METHOD FOR THE SELECTION OF COMPOUNDS USEFUL FOR THE TREATMENT OF PSYCHIATRIC AND NEURODEGENERATIVE DISEASES” (UNIVERSITA' DEGLI STUDI DI TRIESTE, priority 2010, published 2013).

Experiment [1] relates to BDNF 5′UTR splice variants. Briefly: Dual luciferase assay, response of BDNF 5′UTR splice variants to agonists (collective statements). The settings on record: undifferentiated SH-SY5Y; for translation of the other BDNF transcripts (other than exon2C): DHPG 50 μM, AMPA 30 μM, NMDA 30 μM.
Protocol: (§3) Plasmids were transfected into SH-SY5Y cells using lipofectamine 2000 (Invitrogen) to obtain a transient transfection. The relative quantity of DNA to lipofectamine has been determined and the optimal ratio was found at 0.2 μg of DNA and 0.5 μl of lipofectamine for each well of a 96 multiwell plate. At the time of transfection SH-SY5Y cells were around 70-75% of confluency. According to the Promega protocol for luciferase activity measurements, each construct-containing Fluc was transfected together with the normalizing Rluc construct with a 10:1 ratio (0.2 μg Fluc containing vector together with 0.02 μg of pN1-Rluc vector). The DNA (0.2 μg) was mixed with 25 μl of native MEM medium and incubated for 5 minutes at room temperature. The two solutions were then mixed and incubated for 20 minutes at room temperature to allow the formation of DNA-containing micelles. Then, 50 μl of such solution were added in each well to cells and incubated for 24 h at 37° C. After 24 h transfection, the medium was removed and replaced with fresh culture medium.
(§4) To determine the effects of receptors activation on translation controlled by the different BDNF 5′UTR sequences, cells were treated for 3 hours with 50 mM KCl to induce generalized cell depolarization.
(§5) Luciferase assay was performed according to the manufacturer's instructions (Promega). At the time of luciferase assay, the growth medium was removed from the cultured cells and a sufficient volume of PBS 1× was applied to wash the surface of the culture vessel. Then, the PBS 1× solution was completely removed and the cells lysis was started by adding 20 μl of PLB (passive lysis buffer) into each well. After adding the PLB solution, the culture plate was placed on an orbital shaker with gentle shaking at room temperature for 15 minutes to cover uniformly the cell monolayer with PLB. After lysis, 100 μl of Luciferase Assay Reagent II (LARII) were dispensed in each well and Firefly luciferase activity was measured using the Glo Max Multi luminometer with two injectors (Promega Corporation).
(§6) After quantifying the Firefly luminescence, this reaction was quenched and simultaneously, the Renilla luciferase reaction was initiated by adding 100 μl Stop & Glo Reagent (Promega) to the same well. Then, Renilla luciferase activity was measured using the Glo Max Multi luminometer with two injectors (Promega Corporation).
(§7) One day prior transfection, undifferentiated neuro-blastoma SH-SY5Y cells were seeded into a 96-well white plate with clear bottom (PBI International) at a confluency of 50-60% and cultured overnight. Plasmids containing the different BDNF 5′UTR exons were then transiently transfected into SH-SY5Y cells using Lipofectamine™ 2000 (Invitrogen) at high cell density (70-75%), according to the manufacturer's protocol. […]
Experiment [2] relates to pN1-exon6-Fluc-3′UTR long construct. In words: Inhibition of KCl-induced translation of the ex6-Fluc-3′UTRlong construct. The settings on record: for prevention of KCl-induced increase in translation of pN1-exon6-Fluc-3′UTR long: 30 min pre-treatment prior 3 h 20 mM KCl, rapamycin 20 nM, U0126 50 μM, KN62 20 μM, GF 50 nM, Aurora A inhibitor 10 μM, PP2 20 μM. The class given is cell-based, rat. From the text: The present invention can be used not only to identify compounds able to increase BDNF translation, but also to screen for potential inhibitors of BDNF protein production. To this aim a series of vectors were constructed which recapitulate the physiological regulation of BDNF translation in that the firefly luciferase gene was flanked both by 5′UTR regions as well as 3′UTR. These constructs included:
Inhibitors of 5′UTR regulation are: rapamycin (rap)=mTOR inhibitor (Takei, Inamura et al. 2004); U0126=MEK inhibitor (Kanhema, Dagestad et al. 2006); GF=PKC inhibitor (Heikkila, Jalava et al. 1993).
Inhibitors of 3′UTR regulation: KN62=CaMKII inhibitor (Lu, Hidaka et al. 1996); AuA=Aurora A inhibitor (Soncini, Carpinelli et al. 2006) and PP2=Src tyrosine kinase inhibitor (Perkinton, Sihra et al. 1999).
Aurora kinase A inhibitor (PHA-680632) was a gift from Nerviano Medical Sciences S.r.l. (Milan, Italy); PP2 (1-tert-butyl-3-(4-chlorophenyl)-1H-pyrazolo[3-4]pyrimidin-4-amine), rapamycin was purchased from Ascent Scientific (Bristol, UK), Bisindolylmaleimide I (2-[1-(3-dimethylaminopropyl)-1H-indol-3-yl]-3-(1H-indol-3yl)-maleimide, GF 109203X, Gö 6850), KN62 (1-[N,O-bis-5-isoquinolinesulfonyl)-N-methyl-L-tyrosyl]-4-phenylpiperazine), U0126 (1,4-diamino-2,3-dicyano-1,4-bis(2-aminophenylthio)butadiene), and U0124 (1,4-Diamino-2,3-dicyano-1,4-bis(methylthio)butadiene) from Calbiochem (Damstadt, Germany).
Relative luciferase units (RLU) describe in absolute values for the Fluc/Rluc (F/R) ratio obtained from each condition—basal, 3 h of 20 mM KCl, 30 min of treatment—rapamycin 20 nM, U0126 50 μM, KN62 20 μM, GF 50 nM, Aurora A inhibitor 10 μM or PP2 20 μM, prior 3 h of depolarization. A value of 1.0 was assumed for the basal condition. The represented data (mean+standard error) corresponds to three independent experiments in quadruplicate ***, P<0.001; **, P<0.01; *, P<0.05, One Way Anova followed by a multiple comparison versus Fluc construct procedure with Holm-Sidak's method.

For experiment [3], the system named is SH-SY5Y human neuroblastoma cells. In words: MTT viability assay. Type of experiment: cell-based. The settings on record: 3 h; ACh 10 μM, NE 50 uM, DOPA 40 μM, BDNF and NT3 both 50 ng/ml. The method, then:
Using a 96-well plate 100 μl of SHSY-5Y cells were distributed per well, maintaining them overnight at 37° C. in a 5% CO2-humified incubator. […] After that, 20 μl of aseptically prepared 5 mg/mL MTT was added, adding it also to an additional quadruplicate of wells without cells, as an internal control. The cells were again incubated at 37° C. this time for 2 h, allowing the formation of formazan crystals by the mitochondrial dehydrogenase of viable cells. Afterwards, the media was carefully removed, and the formazan crystals were solubilised by adding 200 μl of MTT solvent per well, a solution that contains acidified isopropanol (4 mM HCl and 0.1% Nondet P-40 in isopropanol). The crystals were further dissolved by gently pipetting the solution up and down being the resulting purple solution spectrophotometrically measured at 570 nm. An increased absorbance can therefore be directly correlated to the cell number, allowing one to determine the cellular viability after a specific treatment. Since the method is dependent on the physiological state of the cells, the assay was always performed after checking the cellular morphology prior treatment. Moreover, two controls were performed: (1) untreated cells, an internal control to verify the drug-dependent effect; and (2) KCl 200 mM treated cells, in which a cytotoxic concentration was used, thus allowing us to verify the assay fidelity.

For another experiment, the system named is rat BDNF 5′UTR exon 2B. In words: Dual luciferase assay, pN1-exon2B-Fluc in SH-SY5Y cells. Type of experiment: cell-based. The settings on record: undifferentiated SH-SY5Y, 24 h after transfection; KCL 50 mM, BDNF 50 ng/ml, GLU 20 μM, NE 50 μM.
Another experiment has as its system rat BDNF 5′UTR exon 2C. In words: Dual luciferase assay, pN1-exon2C-Fluc in SH-SY5Y cells. The class given is cell-based. The conditions noted are these: undifferentiated SH-SY5Y; GLU 20 μM, NMDA 30 μM, NE 50 μM.
Another experiment relates to BDNF 3′UTR-short. Briefly: Luciferase assay, pN1-Fluc-3′short in SH-SY5Y cells. Type of experiment: cell-based, rat. The conditions noted are these: transfected SHSY-5Y; GLU 20 μM. On the procedure: (§1) Basal and drug-induced translation of a luciferase reporter gene driven by BDNF short and long 3′UTR or coding region (CDS) sequences were measured.
(§2) BDNF ([…]) was specifically employed for the stimulation of the 3′UTR long containing plasmid and NT3 ([…]) for 3′UTR short containing plasmid.

The next experiment relates to rat BDNF 5′UTR exon 1. Briefly: Dual luciferase assay, pN1-exon1-Fluc in SH-SY5Y cells. The conditions noted are these: undifferentiated SH-SY5Y, 24 h after transfection; KCL 50 mM, BDNF 50 ng/ml, GLU 20 μM, NE 50 μM. Type of experiment: cell-based.
For the next experiment, the system named is rat BDNF 5′UTR exon 8. Briefly: Dual luciferase assay, pN1-exon8-Fluc in SH-SY5Y cells. Type of experiment: cell-based. The settings on record: undifferentiated SH-SY5Y; BDNF 50 ng/ml, GLU 20 μM, 5-HT 50 μM.
A further experiment has as its system rat BDNF 5′UTR exon 4. In words: Dual luciferase assay, pN1-exon4-Fluc in SH-SY5Y cells. Type of experiment: cell-based. The settings on record: undifferentiated SH-SY5Y; KCL 50 mM, BDNF 50 ng/ml, GLU 20 μM, NE 50 μM, 5-HT 50 μM.
The next experiment concerns BDNF 3′UTR-long. In words: Luciferase assay, pN1-Fluc-3′long in SH-SY5Y cells. The class given is cell-based, rat. The conditions noted are these: transfected SHSY-5Y; KCl 50 mM, GLU 20 μM, DHPG 50 μM, AMPA 30 μM, NMDA 30 μM, AcH 30 μM, NE 50 μM, DOPA 40 μM, 5-HT 50 μM, BDNF 50 ng/μl. The method, then: as §1, §2
Another experiment concerns rat BDNF 5′UTR exon 3. Briefly: Dual luciferase assay, pN1-exon3-Fluc in SH-SY5Y cells. The class given is cell-based. The conditions noted are these: undifferentiated SH-SY5Y; KCL 50 mM.
In the next experiment the test system is rat BDNF 5′UTR exon 7. Briefly: Dual luciferase assay, pN1-exon7-Fluc in SH-SY5Y cells. Type of experiment: cell-based. The conditions noted are these: undifferentiated SH-SY5Y; NE 50 μM.

Protocol for rat BDNF 5′UTR exon 1: as §3, §4, §5, §6, §7
Protocol for rat BDNF 5′UTR exon 2B: as §3, §4, §5, §6, §7
Protocol for rat BDNF 5′UTR exon 2C: as §3, §4
Luciferase assay was performed according to the manufacturer's instructions (Promega). At the time of luciferase assay, the growth medium was removed from the cultured cells and a sufficient volume of PBS 1× was applied to wash the surface of the culture vessel. […] After lysis, 100 μl of Luciferase Assay Reagent II (LARII) were dispensed in each well and Firefly luciferase activity was measured using the Glo Max Multi luminometer with two injectors (Promega Corporation).
(§8) After quantifying the Firefly luminescence, this reaction was quenched and simultaneously, the Renilla luciferase reaction was initiated by adding 100 μl Stop & Glo Reagent (Promega) to the same well. Then, Renilla luciferase activity was measured using the Glo Max Multi luminometer with two injectors (Promega Corporation). […]
Protocol for rat BDNF 5′UTR exon 3: (§9) Plasmids were transfected into SH-SY5Y cells using lipofectamine 2000 (Invitrogen) to obtain a transient transfection. The relative quantity of DNA to lipofectamine has been determined and the optimal ratio was found at 0.2 μg of DNA and 0.5 μl of lipofectamine for each well of a 96 multiwell plate. At the time of transfection SH-SY5Y cells were around 70-75% of confluency. According to the Promega protocol for luciferase activity measurements, each construct-containing Fluc was transfected together with the normalizing Rluc construct with a 10:1 ratio (0.2 μg Fluc containing vector together with 0.02 μg of pN1-Rluc vector). The DNA (0.2 μg) was mixed with 25 μl of native MEM medium and incubated for 5 minutes at room temperature. […]
(§10) Luciferase assay was performed according to the manufacturer's instructions (Promega). […] After lysis, 100 μl of Luciferase Assay Reagent II (LARII) were dispensed in each well and Firefly luciferase activity was measured using the Glo Max Multi luminometer with two injectors (Promega Corporation).
as §8
Protocol for rat BDNF 5′UTR exon 4: as §3, §4, §5, §6, §7
Protocol for rat BDNF 5′UTR exon 7: as §9, §10, §8
Protocol for rat BDNF 5′UTR exon 8: as §9, §10, §8

Consider `Cc1o[nH]c(=O)c1CC(N)C(=O)O` (centres unmarked) [AMPA], for which the “translation of the other BDNF transcripts (other than exon2C)” value (“translation … (other than exon2C)” below) in experiment [1] is “not stimulated”.
For `CCc1cccc(CC)c1NC(=O)N1Cc2n[nH]c(NC(=O)c3ccc(N4CCN(C)CC4)cc3)c2C1` [Aurora A inhibitor, PHA-680632], in experiment [2], the “prevention of KCl-induced increase in translation of pN1-exon6-Fluc-3′UTR long” value (“prevention of KCl-induced increase” for short) is “completely prevents”.
As to `N[C@H](C(=O)O)c1cc(O)cc(O)c1` [DHPG], the “translation … (other than exon2C)” value in experiment [1] is on record as “not stimulated”.
Consider `NCCc1ccc(O)c(O)c1` [Dopamine], for which the “cell survival (MTT viability), neurotrophic effect” value (“cell survival (MTT viability)” for short) in experiment [3] is “small increase in cell survival”.
On to `CN(C)CCCn1cc(C2=C(c3c[nH]c4ccccc34)C(=O)NC2=O)c2ccccc21` [GF, 2-[1-(3-dimethylaminopropyl)-1H-indol-3-yl]-3-(1H-indol-3yl)-maleimide], for which the “prevention of KCl-induced increase” value in [2] is “not”.
On to `N[C@@H](CCC(=O)O)C(=O)O` [Glutamate, Glutammate], for which the “translation of exon 2B-containing transcripts (ratio F-luc/R-Luc)” value with rat BDNF 5′UTR exon 2B is recorded as “significantly increase”. The “expression of exon 2C containing plasmid (ratio F-luc/R-Luc)” value with rat BDNF 5′UTR exon 2C is recorded as “able to induce the expression”. The “translation of 3′UTR-short-containing transcripts” value in the experiment on BDNF 3′UTR-short is “striking increase”. Besides, in the experiment with rat BDNF 5′UTR exon 1, the “translation of exon1-containing transcripts (ratio F-luc/R-Luc)” value is “significantly increase”. Moreover, the “response of exon 8-containing plasmid (ratio F-luc/R-Luc)” value in the experiment with rat BDNF 5′UTR exon 8 was “responsive”. Besides, the “translation of exon 4-containing transcripts (ratio F-luc/R-Luc)” value in the experiment with rat BDNF 5′UTR exon 4 was “significantly increase”.
Take `[Cl-].[K+]` [KCl]: in the experiment on rat BDNF 5′UTR exon 2B, the “translation of exon 2B-containing transcripts (ratio F-luc/R-Luc)” value is on record as “significantly increase”. In the experiment with rat BDNF 5′UTR exon 1, the “translation of exon1-containing transcripts (ratio F-luc/R-Luc)” value is “significantly increase”. Besides, the “translation of 3′UTR-long-containing transcripts” value in the experiment on BDNF 3′UTR-long is on record as “slightly but not significant increase”. Also, the “expression of exon 3-containing plasmid (ratio F-luc/R-Luc)” value with rat BDNF 5′UTR exon 3 is recorded as “induced”. For the same molecule, in the experiment with rat BDNF 5′UTR exon 4, the “translation of exon 4-containing transcripts (ratio F-luc/R-Luc)” value is recorded as “significantly increase”. For the same molecule, in [2] (end of 3 h depolarization with 20 mM KCl), the “increase in translation of pN1-exon6-Fluc-3′UTR long (Fluc/Rluc ratio, basal = 1.0)” value is “three-fold increase”.
Consider `CN([C@@H](Cc1ccc(OS(=O)(=O)c2cccc3cnccc23)cc1)C(=O)N1CCN(c2ccccc2)CC1)S(=O)(=O)c1cccc2cnccc12` [KN62], for which, in [2], the “prevention of KCl-induced increase” value is on record as “completely prevents”.
As for `CN[C@H](CC(=O)O)C(=O)O` [NMDA], the “expression of exon 2C containing plasmid (ratio F-luc/R-Luc)” value in the experiment on rat BDNF 5′UTR exon 2C is recorded as “enhancement”. For the same molecule, the “translation … (other than exon2C)” value in [1] was “not stimulated”.
As for `NC[C@H](O)c1ccc(O)c(O)c1` [Norepinephrine], the “translation of exon 2B-containing transcripts (ratio F-luc/R-Luc)” value in the experiment on rat BDNF 5′UTR exon 2B is recorded as “significantly increase”. Moreover, in the experiment on rat BDNF 5′UTR exon 2C, the “expression of exon 2C containing plasmid (ratio F-luc/R-Luc)” value is recorded as “increased”. Moreover, in the experiment on rat BDNF 5′UTR exon 7, the “exon7 reporter expression (ratio F-luc/R-Luc)” value was “increased”. Besides, the “cell survival (MTT viability)” value in experiment [3] is “small increase in cell survival”. The “translation of exon1-containing transcripts (ratio F-luc/R-Luc)” value with rat BDNF 5′UTR exon 1 is recorded as “significantly increase”. Further, in the experiment with rat BDNF 5′UTR exon 4, the “translation of exon 4-containing transcripts (ratio F-luc/R-Luc)” value was “significantly increase”.
As to `CC(C)(C)n1nc(-c2ccc(Cl)cc2)c2c(N)ncnc21` [PP2, 1-tert-butyl-3-(4-chlorophenyl)-1H-pyrazolo[3-4]pyrimidin-4-amine], in experiment [2], the “prevention of KCl-induced increase” value was “completely prevents”.
As to `NCCc1c[nH]c2ccc(O)cc12` [Serotonin], the “translation of every BDNF exons-containing plasmid, with the exception of those containing exon 2A, 4 and 8” value in [1] (5-HT 50 μM) was “able to increase the translation”.
`N#CC(=C(N)Sc1ccccc1N)C(C#N)=C(N)Sc1ccccc1N` [U0126, 1,4-diamino-2,3-dicyano-1,4-bis(2-aminophenylthio)butadiene]: the “prevention of KCl-induced increase” value in experiment [2] is reported as “completely prevents”.

B1: Brain-derived neurotrophic factor (protein, UniProt P23560 19-247, looked up)
Neurotrophic factor BDNF …: APMKEANIRGQGGLAYPGVRTHGTLESVNGPKAGSRGLTSLADTFEHVIEELLDEDQKVRPNEENNKDADLYTSRVMLSSQVPLEPPLLFLLEEYKNYLDAANMSMRVRRHSDPARRGELSVCDSISEWVTAADKKTAVDMSGGTVTVLEKVPVSKGQLKQYFYETKCNPMGYTKEGCRGIDKRHWNSQCRTTQSYVRALTMDSKKRIGWRFIRIDTSCVCTLTIKRGR
notes: growth and trophic factor of the neurotrophin family, used as agonist at 50 ng/ml
As to B1, in the experiment with rat BDNF 5′UTR exon 2B, the “translation of exon 2B-containing transcripts (ratio F-luc/R-Luc)” value is on record as “significantly increase”. Moreover, the “cell survival (MTT viability)” value in experiment [3] is recorded as “small increase in cell survival”. In the experiment on rat BDNF 5′UTR exon 1, the “translation of exon1-containing transcripts (ratio F-luc/R-Luc)” value was “significantly increase”. Also, the “response of exon 8-containing plasmid (ratio F-luc/R-Luc)” value with rat BDNF 5′UTR exon 8 was “responsive”. For the same molecule, the “translation of exon 4-containing transcripts (ratio F-luc/R-Luc)” value in the experiment with rat BDNF 5′UTR exon 4 is reported as “significantly increase”.

B2: Neurotrophin-3 (protein, UniProt P20783 139-257, looked up)
Neurotrophin-3: YAEHKSHRGEYSVCDSESLWVTDKSSAIDIRGHQVTVLGEIKTGNSPVKQYFYETRCKEARPVKNGCRGIDDKHWNSQCKTSQTYVRALTSENNKLVGWRWIRIDTSCVCALSRKIGRT
notes: neurotrophin, used at 50 ng/ml
On to B2, for which the “cell survival (MTT viability)” value in experiment [3] was “small increase in cell survival”.
